The source of these data is patent US11898210B2, “Tools for assessing FimH blockers therapeutic efficiency” (ENTEROME, priority 2017, dated 2024).

For one test, the system named is LF82-ΔFimH. The test is described as follows: Aggregation assay with EB8018 on negative control strain LF82-ΔFimH. The test is classed as cell-based, Escherichia coli. Particulars: whatever the concentration tested and whatever the time of incubation. The method, then: (§1) Three days before aggregation assays, bacterial strains were defrosted on TSA (Tryptone Soya Agar) plates. A first overnight culture was performed by inoculation of 3 mL of LB broth with a single colony of bacteria followed by a second overnight culture (1 mL of the first culture+4 mL LB broth).
(§2) Six concentrations of EB8018 (sample SP-0010269-017 produced by China Gateway) were tested in the aggregation assays (1 nM/10 nM/100 nM/1 μM/10 μM and 100 μM), 500× working solutions were prepared in pure DMSO by 10-fold serial dilutions from a 100 mM stock solution (65 mg EB8018+1 mL DMSO; MEB8018:649.68 g/mol). The 500× working solutions (1 μM, 10 μM, 100 μM, 1 mM, 10 mM and 100 mM) were split into aliquots and stored at −20° C., until use.
(§3) On the day of the test, an aliquot of each EB8018 500× working solution (1 μM, 10 μM, 100 μM, 1 mM, 10 mM and 100 mM) was defrosted and diluted twice in LB medium (1:20 for the first dilution and 1:25 for the second dilution) to obtain respectively six 2× working solutions (2 nM, 20 nM, 200 nM, 2 μM, 20 μM and 200 μM). The second overnight bacterial cultures were diluted in LB medium (50-fold dilution). […] Every hour, each well was observed and the starting time of aggregation was recorded. […] For each concentration and each time point, aggregation was evaluated by a technician. […]

Another test deals with isolated E. coli strains. The test is described as follows: Aggregation assay with EB8018 on the collection of isolated bacterial strains. In kind it is cell-based, Escherichia coli.
Excerpt: 110 E. coli strains from La Girona University (Margarita Medina-Martinez Lab-Girona-Spain) and Cornell (Kenneth Simpson Lab—Ithaca—USA) have been made available through MTA. These isolated strains had been previously extracted from the stool or ileal/colonic biopsies of IBD patients or controls and had been characterised for their AIEC phenotype (for Cornell strains see Dogan B. et al., 2014; Baumgart M. et al., 2007, summarized in the Appendix). Those 110 strains have been sent to SMALTIS (Besangon, France) who is in charge of all laboratory work. An additional 3 non E. coli strains have been ordered as well as LF82 and LF82 deltaFimH that serve as respectively positive and negative controls.
as §1, §2, §3

Test [1] relates to bacterial morphotypes isolated from biopsies of CD patients. The test is described as follows: Aggregation to EB8018 of bacterial morphotypes isolated from MOBIDIC ileal biopsies. In kind it is cell-based. Particulars: 106 CD patients with conclusive biopsy results; 10 nM/100 nM/1 μM EB8018. How it is done:
Mucosal specimens, isolated from CD patients have been collected from the MOBIDIC study. For each patient, 4 biopsies were collected, 2 or 3 for further investigations and 1 or 2 as back-up sample stored at Cell&Co (Clermont-Ferrand, France). The ileal specimens were introduced immediately into preweighed vials containing 1.8 mL of refrigerated DMEM with 15% glycerol. The vials were weighed to establish the weight of sample. Ideally, the size of the biopsies must be between 5 and 10 mg. After being frozen at −80° C., vials were sent to Cell&Co and stored at −80° C. upon receipt.
On day 1, biopsies were processed to retrieve adherent bacteria (extract A) and invasive bacteria (extract I). […]
Extracts A and I were cultivated in LB broth for 2×24 hours and on day 3, the LB overnight cultures were used for aggregation assays with EB8018 compound. […] Every hour, bacterial growth was measured and a picture of each well was taken using a SPARK10M. After 5 hours, the microplate was shacked and 10 min after, a picture was taken for aggregation assessment (aggregation was evaluated by a technician with comparison with DMSO). […]
When no aggregation was observed on extracts or in case of inconclusive evaluation (for example with observation of aggregation with the DMSO without any compound), a second biopsy was analysed following the same protocol. […]

A further test has as its system LF82. The test is described as follows: Aggregation assay with EB8018 on positive control strain LF82. The test is classed as cell-based, Escherichia coli. The method, then:
as §1, §2
On the day of the test, an aliquot of each EB8018 500× working solution (1 μM, 10 μM, 100 μM, 1 mM, 10 mM and 100 mM) was defrosted and diluted twice in LB medium (1:20 for the first dilution and 1:25 for the second dilution) to obtain respectively six 2× working solutions (2 nM, 20 nM, 200 nM, 2 μM, 20 μM and 200 μM). The second overnight bacterial cultures were diluted in LB medium (50-fold dilution). Fifty μL of these bacteria dilutions were dispensed into 96-well plates (8 wells/strain). Fifty μL of the EB8018 2× working solutions or fresh LB or LB with 0.2% DMSO were added to the wells. Microplates were incubated for 5 hours at 37° C. under constant shaking (200 rpm). Every hour, each well was observed and the starting time of aggregation was recorded. After 5 hours of incubation, a picture was taken only in wells where an aggregation was observed. For each concentration and each time point, aggregation was evaluated by a technician.
This protocol was applied to the 113 isolated bacterial strains. On each plate, a positive control (LF82) and a negative control (LF82-ΔFimH) were used.

Test [2] has as its system AIEC. The note with it: Bouckaert et al., 2005, 2013; cited from earlier work.
Test [3] has as its system AIEC. Particulars: CEABAC 10 Crohn's disease model; Sivignon 2015; cited from earlier work.
The next test relates to cystitis murine model. Particulars: Wellens et al., 2008; cited from earlier work.

Regarding `CC(=O)N1CCC2(CC1)c1cc(C#C[C@H]3O[C@H](CO)[C@@H](O)[C@H](O)[C@@H]3O)ccc1-c1ccc(C#C[C@H]3O[C@H](CO)[C@@H](O)[C@H](O)[C@@H]3O)cc12` [EB8018, 1-(2,7-bis(((2R,3S,4R,5S,6R)-3,4,5-trihydroxy-6-(hydroxylmethyl)tetrahydro-2H-pyran-2-yl)ethynyl)spiro[fluorene-9,4′-piperidin]-1′-yl)ethan-1-one], the aggregation result in the test with LF82-ΔFimH was “did not aggregate”. Moreover, the “share of analyzable strains classified on the grey zone (low aggregation)” value in the test on isolated E. coli strains (6 concentrations, every hour for 5 hours) came to 13%. Further, in the test with isolated E. coli strains (all results negative across 6 concentrations and 5 hours), the “share of analyzable strains that did not aggregate” value turned out to be 44%. Also, in the test with isolated E. coli strains (at least one + or +/− across 6 concentrations and 5 hours), the “share of analyzable strains that did aggregate” value is listed as 42%. Further, the “share of patients with at least one morphotype that aggregated” value in test [1] amounted to 65%. In addition, the “share of patients with no aggregation” value in test [1] is listed as 15%. Besides, the level of aggregation entry in the test with LF82 (LF82, 1 nM EB8018, after 5 h of incubation) is “strong aggregation”; in the test on LF82 (LF82, 10 nM EB8018, after 5 h of incubation), “strong aggregation”; with LF82 (LF82, 100 nM EB8018, after 5 h of incubation), “strong aggregation”; with LF82 (LF82, 1 μM EB8018, after 5 h of incubation), “moderate aggregation”. Besides, in the test with LF82 (LF82 positive control, incubation at 37° C.), the “starting time of aggregation” value came to 2 h.
On to `CCCCCCCO[C@H]1O[C@H](CO)[C@@H](O)[C@H](O)[C@@H]1O` [Heptylmannose], for which the “in vitro AIEC adhesion inhibition” value in the test with AIEC [2] was “potent”. Further, the “effect with AIEC” value in the test with AIEC [3] was “no effect”. Moreover, in the test on cystitis murine model, the “concentration required for a significant bacterial load reduction” value was “millimolar concentrations are required”.
